# Source: US6897222B2, “Pyrido[2,1-a]isoquinoline derivatives” (Hoffmann-La Roche Inc., priority 2001, dated 2005)
# Molecular target: T1, human DPP-IV (Homo sapiens, UniProt P27487)
# T1 construct: made in house; host or cells: Pichia pastoris
# Test: DPP-IV activity assay (fluorogenic or colorimetric), IC50 determination
# Type: biochemical
# Details: natural human DPP-IV from plasma pool or recombinant human DPP-IV; substrate 50 μM (fluorogenic) or 200 μM (colorimetric); 37° C., pH 7.8
# Protocol: Activity of DPP-IV inhibitors are tested with natural human DPP-IV derived from a human plasma pool or with recombinant human DPP-IV. Human citrate plasma from different donors is pooled, filtered through a 0.2 micron membrane under sterile conditions and aliquots of 1 ml are shock frozen and stored at −120° C. until used. In the colorimetric DPP-IV assay 5 to 10 μl human plasma and in the fluorometric assay 1.0 μl of human plasma in a total assay volume of 100 μl is used as an enzyme source. […] Human DPP-IV is expressed and purified from the culture medium using conventional column chromatography including size exclusion and anion and cation chromatography. […] In the colorimetric DPP-IV assay 20 ng rec.-h DPP-IV and in the fluorometric assay 2 ng rec-h DPP-IV in a total assay volume of 100 μl is used as an enzyme source.
# A 20 mM stock solution in 10% DMF/H2O is stored at −20° C. until use.
# In the colorimetric assay H-Ala-Pro-pNA. […] A 10 mM stock solution in 10% MeOH/H2O is stored at −20° C. until use.
# Initial rate constants are calculated by best fit linear regression.
# DPP-IV activity assays are performed in 96 well plates at 37° C. in a total assay volume of 100 μl. The assay buffer consists of 50 mM Tris/HCl pH 7.8 containing 0.1 mg/ml BSA and 100 mM NaCl. Test compounds are solved in 100% DMSO, diluted to the desired concentration in 10% DMSO/H2O. The final DMSO concentration in the assay is 1% (v/v).
# Compounds are with (10 minutes at 37° C.) and without preincubation with the enzyme. Enzyme reactions are started with substrate application followed by immediate mixing.
# Kinetic parameters of the enzyme reaction are calculated at at least 5 different substrate concentrations and at least 5 different test compound concentrations.
# T1 sequence (P27487 31-766): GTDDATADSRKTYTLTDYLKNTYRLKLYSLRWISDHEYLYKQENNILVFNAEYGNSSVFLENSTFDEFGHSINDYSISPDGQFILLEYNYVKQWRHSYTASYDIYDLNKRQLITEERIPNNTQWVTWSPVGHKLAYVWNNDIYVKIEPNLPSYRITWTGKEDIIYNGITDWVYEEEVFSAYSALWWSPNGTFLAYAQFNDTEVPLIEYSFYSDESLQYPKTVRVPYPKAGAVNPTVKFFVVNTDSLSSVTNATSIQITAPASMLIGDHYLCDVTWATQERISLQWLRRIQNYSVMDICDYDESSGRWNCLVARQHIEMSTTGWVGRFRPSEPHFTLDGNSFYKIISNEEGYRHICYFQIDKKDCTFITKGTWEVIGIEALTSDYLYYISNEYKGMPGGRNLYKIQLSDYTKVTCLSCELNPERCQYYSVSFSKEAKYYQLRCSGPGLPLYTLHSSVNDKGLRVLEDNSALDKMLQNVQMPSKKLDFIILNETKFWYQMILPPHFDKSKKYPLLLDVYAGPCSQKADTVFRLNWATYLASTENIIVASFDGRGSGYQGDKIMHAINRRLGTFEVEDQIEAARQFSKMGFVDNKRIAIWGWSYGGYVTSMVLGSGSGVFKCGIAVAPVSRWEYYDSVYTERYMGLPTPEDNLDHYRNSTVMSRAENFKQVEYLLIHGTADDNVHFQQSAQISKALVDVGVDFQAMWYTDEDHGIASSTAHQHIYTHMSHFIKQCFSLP
row,SMILES,IC50 [nM]
1,"CCCCC1CN2CCc3cc(O)c(OC)cc3C2CC1N (racemic) [Example 43b, rac-2α-amino-3β-butyl-10-methoxy-1,3,4,6,7,11bβ-hexahydro-2H-pyrido[2,1-a]isoquinolin-9-ol]",340
2,"CCCC[C@@H]1CN2CCc3cc(O)c(OC)cc3[C@H]2C[C@H]1N (racemic) [Example 39, rac-2α-Amino-3β-butyl-10-methoxy-1,3,4,6,7,11bβ-hexahydro-2H-pyrido[2,1-a]isoquinolin-9-ol chlorohydrate (1:2)]",620
3,"COc1cc2c(cc1OC)C1CC(N)C(CCC(C)C)CN1CC2 (racemic) [Example 5, rac-9,10-Dimethoxy-3β-(3-methyl-butyl)-1,3,4,6,7,11bβ-hexahydro-2H-pyrido[2,1-a]isoquinolin-2α-ylamine]",570
4,"CCCCC1CN2C(CC1N)c1cc(OC)c(OC)cc1C1CCCCC12 (racemic) [Example 36, rac-7β-Butyl-11,12-dimethoxy-2,3,4,4a,6,7,8,9,9a,13bβ-decahydro-1H-pyrido[1,2-f]phenanthridin-8β-ylamine chlorohydrate (1:2)]",160
5,"CCCCC1CN2C(CC1N)c1cc(OC)c(OC)cc1C1CCCCC12 (mixture of isomers) [Example 17, rac-7β-Butyl-11,12-dimethoxy-2,3,4,4a,6,7,8,9,9a,13bβ-decahydro-1H-pyrido[1,2-f]phenanthridin-8β-ylamine]",140
